# Laboratory results: patent US20230137849A1, “USE OF A COMPOUND OF THE DIURETICS CLASS FOR TREATING CANCER” (AZELEAD, priority 2017, published 2023)
# Columns and labels:
# N-CADHERIN = experiment: q-RT-PCR expression of EMT markers in MDA-MB-231 cells under hypoxia: N-CADHERIN; assay type: cell-based, human; details: althiazide 100 μM, hypoxic conditions (1% O2), vs control, FIG. 11
# Description: (§1) The cell cultures are carried out on human breast cancer epithelial cell lines MDA-MB-231 (HTB-26™), resulting from metastases present in a pleural effusion of a patient with a mammary adenocarcinoma. This line is used as a triple negative cancer cell model (no expression of ER-type nuclear estrogen receptors, nuclear progesterone receptors or overexpression of the oncogene encoding HER2 protein (Human Epidermal Growth factor Receptor-2).
# (§2) The cells were cultured in DMEM medium (Eurobio, Fance) supplemented with 10% fetal calf serum (FCS) (Eurobio, Fance) at 37° C., 5% CO2. The medium was changed every 3 days.
# (§3) The cells were placed in a controlled atmosphere at 1% oxygen 24 hours before the application of the different treatments.
# (§4) The expression of the mRNAs is measured by the q-RT-PCR method. The cells were seeded at the density of 500,000 cells/well in 6-well plates. After 24 hours at 37° C., 5% CO2 and 1% O2, the medium was renewed and added the various treatments. RNA was isolated using TRI Reagent® (sigma), assayed and retro-transcribed into complementary DNA using the PrimeScript RT Reagent Kit (Takara). The expression levels of the mRNA of the genes of interest were determined by quantitative PCR (LightCycler® 480 Instrument II) with the primers listed in Table 2: […]
# (§5) The results are calculated using the Delta Delta Ct (Δ ΔCt) method.
# SNAIL = experiment: q-RT-PCR expression of EMT markers in MDA-MB-231 cells under hypoxia: SNAIL; assay type: cell-based, human; details: althiazide 100 μM, hypoxic conditions (1% O2), vs control, FIG. 11
# Description: as §1, §2, §3, §4, §5
# zebrafish embryo = details: in vivo, 24 h, 1 mM
# Description: The toxicity study is carried out over 72 hours. The embryos are treated at 25 hpf with the doses used for the test of chemical compounds of each of the compounds, in a 96-well plate, in a final volume of 100 μl of the embryonic growth medium. The embryos are incubated 72 h at 28° C. The medium is changed every 24 hours. The survival rate of embryos and the appearance of developmental defects are analyzed daily.
# At the same time, we analyzed the toxicity of althiazide after balancing with a solution containing althiazide at concentrations of 1 μM, 10 μM, 100 μM, 1000 μM for 24, 48 and 72 hours. The toxicity study was based on analysis of the percentage viability of the embryos after treatment. At concentrations of 1 μM, 10 μM and 100 μM, althiazide causes no toxicity even after 72 hours of treatment. A 50% toxicity is observed after treatment for 24 hours, the althiazide at the concentration of 1 mM.
# 4T1 cells [1] = experiment: 4T1 cell migration test (scratch test); assay type: cell-based, mouse; details: lowest concentration 10 nM, t=24 h, FIG. 8
# Description: The cell migration assays on the 4T1 cell line are carried out in vitro in 12-well plates on the 4T1 cell line. The cells are maintained in DMEM culture medium supplemented with 10% calf serum (FCS) and incubated at 37° C. and 5% CO2. The cell monolayer is injured with a 10 μ pipette tip. The medium is aspirated and replaced by a medium containing the compounds to be tested at the concentrations described. The wells are imaged using a microscope and the injured surface is repaired at the indicated times to highlight the cell anti-migratory power of the tested chemical compounds. The average of the measurements obtained is compared with the control wells: (average value of the compounds treated/average value of the controls)*100=% of the average value.
# In order to validate the anti-migratory potential of althiazide, we carry out a “scratch test” on 4T1 cells in culture according to the cell migration test protocol on the 4T1 cell line described in the Materials and Methods section. This test is used to evaluate the migratory power of a chemical compound on cells in culture. […]
# The area of the injured area is measured for each well and the percentage of migration is calculated under each condition.
# 4T1 cells [2] = assay type: cell-based, mouse; details: highest dose 100 μM, FIG. 8
# Description: The cytotoxicity tests are carried out in cell culture in 96-well plates, on the 4T1 cell line. The cells are maintained in a DMEM culture medium supplemented with 10% fetal calf serum (control condition) or placed in the presence of an MTT solution (3-(4,5-dimethylthiazol-2-yl)-2,5-diphenyl tetrazolium bromide) at 1 mg/ml in DMEM medium supplemented with 10% fetal calf serum (100 μl per well). The cells are incubated at 37° C. and 5% CO2 for 4 hours. The reaction is stopped by the addition of 100 μl of a solution containing 10% of SDS and 0.01 M of HCl. The cells are placed in an incubator at 37° C. and 5% CO2 for 2 hours. The absorbance is measured between 570 and 590 nm. The negative control is performed on a well without cells, containing 200 μl of a 1 mg/ml solution of MTT diluted in DMEM culture medium supplemented with 10% fetal calf serum. The average of the measurements obtained is compared with the control wells: (average value of the compounds treated/average value of the controls)*100=% of the average value.
# The 4T1 cells are derived from tumors of the mammary gland in mice.
# In order to study the cytotoxic effects of althiazide in vitro, we analyze the cell death induced by treatment with althiazide by tetrazolium salt labeling MTT (3-(4,5-dimethylthiazol-2-yl)-2,5-diphenyltetrazolium bromide) on 4T1 cells. The amount of living cells in the well is assayed by spectrometry. The results are compared with those obtained after treatment with the control solution (FIG. 8). In this test, we observe a very low mortality of cells after treatment with althiazide (80% of living cells at the highest dose 100 μM). Cells treated with dasatinib have a much higher mortality rate, at much lower doses (80% live cells at the lowest 10 nM dose and 20% live cells at 100 μM).
smiles,measurement,setting,value
C=CCSCC1Nc2cc(Cl)c(S(N)(=O)=O)cc2S(=O)(=O)N1 (racemic) [althiazide],change in expression of N-CADHERIN,N-CADHERIN,−33%
same,change in expression of SNAIL,SNAIL,−19%
same,toxicity (percentage viability of the embryos),zebrafish embryo,50%
same,decrease in cell migration,4T1 cells [1],40%
same,living cells (MTT),4T1 cells [2],80%
